Test results reported in patent US5540861A (priority 1994, dated 1996).

Tests used:
in vivo = details: po
[1] = in vivo

Compound	LD50 (in vivo)	ORAL LD50 [1]
CCCCc1cc([N+](=O)[O-])c(O)c([N+](=O)[O-])c1 [DNBP (C4), 2,6dinitro-4-butylphenol]	30 mg/kg	–
CCCCCCCCCc1cc([N+](=O)[O-])c(O)c([N+](=O)[O-])c1 [DNNP (C9), 2,6dinitro-4-nonylphenol]	50 mg/kg	–
CCO [Ethanol]	–	7,080 mg/kg
[Cl-].[Na+] [Sodium Chloride]	–	3,000 mg/kg
